Results: patent US20250197384A1, “AZOLE COMPOUND AND ANTIFUNGAL AGENT” (NIHON NOHYAKU CO., LTD., priority 2022, published 2025)
≈ marks a conversion by molar mass, not a printed value. One block for each compound: values may come before it.

Columns and labels:
[1] = tested on: Candida albicans NBRC1270; assay: In vitro anti-Candida activity test; assay type: cell-based; details: for C. albicans (MIC): 80% or more inhibition, unit inferred
Experimental: Candida albicans NBRC1270 was used as the strain. The test fungi were cultured on a Sabouraud dextrose agar slant medium at 35° C. for 24 hr, and then suspended in sterilized saline. The number of cells in this suspension was counted using a hemocytometer, and the same suspension was adjusted to a cell concentration of 1.5×10^5 cells/mL, and this was used as an inoculum. Each compound was dissolved in dimethyl sulfoxide to a predetermined concentration, and diluted 50-fold with 0.165 M MOPS buffered RPMI 1640 liquid medium, and each diluted solution was dispensed into a 96-well microplate by each 100 μL. The inoculum was diluted 50-fold with 0.165 M MOPS buffered RPMI 1640 liquid medium containing 20% alamar Blue™, and the diluted solution was inoculated into the 96-well microplate containing the compound by each 100 μL (final inoculum amount 1.5×10^3 cells/mL). After static culture at 35° C. for 24 hr, the degree of color development of the alamar Blue™ was measured using a microplate reader (O.D. 570-595 nm), and the minimum concentration showing 80% or more inhibition was defined as the minimum inhibitory concentration (MIC).

[2] = tested on: Aspergillus fumigatus TIMM0063; assay: In vitro anti-Aspergillus activity test; assay type: cell-based; details: for A. fumigatus (MIC): 80% or more inhibition, unit inferred
Experimental: Aspergillus fumigatus TIMM0063 was used as the strain. The test fungi were cultured on a Potato dextrose agar slant medium at 35° C. for 4 days, and then sterilized saline containing 0.1% (v/v) Tween 80 was added to release the conidia. This conidial suspension was filtered through sterile gauze, and the number of conidia was counted using a hemocytometer. The same solution was adjusted to a conidial concentration of 1×10^6 conidia/mL, and this was used as an inoculum. Each compound was dissolved in dimethyl sulfoxide to a predetermined concentration, and diluted 50-fold with 0.165 M MOPS buffered RPMI 1640 liquid medium, and each diluted solution was dispensed into a 96-well microplate by each 100 μL. The inoculum was diluted 50-fold with 0.165 M MOPS buffered RPMI 1640 liquid medium containing 20% alamar Blue™, and the diluted solution was inoculated into the 96-well microplate containing the compound by each 100 μL (final inoculum amount 1.0×10^4 conidia/mL). After static culture at 35° C. for 48 hr, the degree of color development of the alamar Blue™ was measured using a microplate reader (O.D. 570-595 nm), and the minimum concentration showing 80% or more inhibition was defined as the minimum inhibitory concentration (MIC).

[3] = Table 22, 35° C. for 24 hr, alamar Blue, minimum concentration showing 80% or more inhibition
[4] = Table 22, 35° C. for 48 hr, alamar Blue, minimum concentration showing 80% or more inhibition

SMILES: CCOC(=O)Nc1cnc([C@@H]2CS/C(=C(/C#N)n3cncn3)S2)c(F)c1 [Compound No. 8, ethyl (R,E)-(6-{2-[cyano(1H-1,2,4-triazol-1-yl)methylene]-1,3-dithiolan-4-yl}-5-fluoropyridin-3-yl)carbamate]
MIC ([1]; Candida albicans, Table 22, 35° C. for 24 hr, alamar Blue, minimum concentration showing 80% or more inhibition, read-out: minimum inhibitory concentration against various fungi (MIC) C. albicans): 0.025 µg/mL (≈ 0.0637 µM)
MIC ([2]; Aspergillus fumigatus, Table 22, 35° C. for 48 hr, alamar Blue, minimum concentration showing 80% or more inhibition, read-out: minimum inhibitory concentration against various fungi (MIC) A. fumigatus): 0.005 µg/mL (≈ 0.0127 µM)

SMILES: CC1(C)OCC(c2cnc(C3CS/C(=C(/C#N)n4ccnc4)S3)c(Cl)c2)O1 (centres unmarked) [compound 5]
minimum inhibitory concentration against various fungi (MIC) C. albicans [1, 3]: 0.005 µg/mL (≈ 0.0119 µM)
minimum inhibitory concentration against various fungi (MIC) A. fumigatus [2, 4]: 0.01 µg/mL (≈ 0.0238 µM)

SMILES: COC(=O)Nc1cnc([C@@H]2CS/C(=C(/C#N)n3cncn3)S2)c(Cl)c1 [compound 9]
minimum inhibitory concentration against various fungi (MIC) C. albicans [1, 3]: 0.013 µg/mL (≈ 0.0329 µM)
minimum inhibitory concentration against various fungi (MIC) A. fumigatus [2, 4]: 0.005 µg/mL (≈ 0.0127 µM)

SMILES: N#C/C(=C1/SCC(c2ncc(NC(=O)OCc3ccccc3)cc2F)S1)n1cncn1 (centres unmarked) [compound 13]
minimum inhibitory concentration against various fungi (MIC) C. albicans [1, 3]: 0.0025 µg/mL (≈ 0.0055 µM)
minimum inhibitory concentration against various fungi (MIC) A. fumigatus [2, 4]: 0.005 µg/mL (≈ 0.011 µM)

SMILES: N#C/C(=C1/SCC(c2ncc(NC(=O)OCc3ccccc3)cc2Cl)S1)n1cncn1 (centres unmarked) [compound 14]
minimum inhibitory concentration against various fungi (MIC) C. albicans [1, 3]: 0.0013 µg/mL (≈ 0.00276 µM)
minimum inhibitory concentration against various fungi (MIC) A. fumigatus [2, 4]: 0.005 µg/mL (≈ 0.0106 µM)

SMILES: N#C/C(=C1/SCC(c2ncc(NC(=O)OCc3ccccc3)cc2Cl)S1)n1ccnc1 (centres unmarked) [compound 17]
minimum inhibitory concentration against various fungi (MIC) C. albicans [1, 3]: 0.0013 µg/mL (≈ 0.00277 µM)
minimum inhibitory concentration against various fungi (MIC) A. fumigatus [2, 4]: 0.005 µg/mL (≈ 0.0106 µM)

SMILES: CO/N=C/c1cnc(C2CS/C(=C(/C#N)n3cncn3)S2)c(F)c1 (centres unmarked) [compound 18]
minimum inhibitory concentration against various fungi (MIC) C. albicans [1, 3]: 0.05 µg/mL (≈ 0.138 µM)
minimum inhibitory concentration against various fungi (MIC) A. fumigatus [2, 4]: 0.01 µg/mL (≈ 0.0276 µM)

SMILES: CCO/N=C/c1cnc(C2CS/C(=C(/C#N)n3cncn3)S2)c(F)c1 (centres unmarked) [compound 20]
minimum inhibitory concentration against various fungi (MIC) C. albicans [1, 3]: 0.013 µg/mL (≈ 0.0345 µM)
minimum inhibitory concentration against various fungi (MIC) A. fumigatus [2, 4]: 0.01 µg/mL (≈ 0.0266 µM)

SMILES: N#C/C(=C1/SCC(c2ncc(/C=N/OCc3ccccc3)cc2F)S1)n1cncn1 (centres unmarked) [compound 22]
minimum inhibitory concentration against various fungi (MIC) C. albicans [1, 3]: 0.0006 µg/mL (≈ 0.00137 µM)
minimum inhibitory concentration against various fungi (MIC) A. fumigatus [2, 4]: 0.005 µg/mL (≈ 0.0114 µM)

Continued, values first:

C. albicans (MIC) ([1]; Table 24, 35° C. for 24 hr): 0.0025 µg/mL
A. fumigatus (MIC) ([2]; Table 24, 35° C. for 48 hr): 0.005 µg/mL
SMILES: CC(C)CON=Cc1cnc(C2CSC(=C(C#N)n3cncn3)S2)c(Cl)c1 (racemic) [compound 143]

C. albicans (MIC) ([1]; Table 24, 35° C. for 24 hr): 0.01 µg/mL
A. fumigatus (MIC) ([2]; Table 24, 35° C. for 48 hr): 0.005 µg/mL
SMILES: CCCON=Cc1cnc(C2CSC(=C(C#N)n3cncn3)S2)c(F)c1 (racemic) [compound 144]

C. albicans (MIC) ([1]; Table 25, 35° C. for 24 hr): 0.005 µg/mL
A. fumigatus (MIC) ([2]; Table 25, 35° C. for 48 hr): 0.01 µg/mL
SMILES: N#C/C(=C1/SCC(c2ncc(NC(=O)OCC3(F)CC3)cc2Cl)S1)n1cncn1 (racemic) [compound 150]

C. albicans (MIC) ([1]; Table 25, 35° C. for 24 hr): 0.0025 µg/mL
A. fumigatus (MIC) ([2]; Table 25, 35° C. for 48 hr): 0.01 µg/mL
SMILES: N#C/C(=C1/SCC(c2ncc(NC(=O)OCC3CC3(Cl)Cl)cc2Cl)S1)n1cncn1 (racemic) [compound 151]

minimum inhibitory concentration against various fungi (MIC) C. albicans [1, 3]: 0.0013 µg/mL (≈ 0.00286 µM)
minimum inhibitory concentration against various fungi (MIC) A. fumigatus [2, 4]: 0.005 µg/mL (≈ 0.011 µM)
SMILES: N#C/C(=C1/SCC(c2ncc(/C=N/OCc3ccccc3)cc2Cl)S1)n1ccnc1 (centres unmarked) [compound 26]

C. albicans (MIC) ([1]; Table 23, 35° C. for 24 hr): 0.01 µg/mL
A. fumigatus (MIC) ([2]; Table 23, 35° C. for 48 hr): 0.01 µg/mL
SMILES: N#C/C(=C1/SCC(c2ncc(COC3CCCCO3)cc2Cl)S1)n1ccnc1 (centres unmarked) [compound 28, (E)-2-[4-(3-chloro-5-{[(tetrahydro-2H-pyran-2-yl)oxy]methyl}pyridin-2-yl)-1,3-dithiolan-2-ylidene]-2-(1H-imidazol-1-yl)acetonitrile]

C. albicans (MIC) ([1]; Table 23, 35° C. for 24 hr): 0.005 µg/mL
A. fumigatus (MIC) ([2]; Table 23, 35° C. for 48 hr): 0.01 µg/mL
SMILES: N#C/C(=C1/SCC(c2ncc(NC(=O)OCCCl)cc2Cl)S1)n1ccnc1 (centres unmarked) [compound 66]

C. albicans (MIC) ([1]; Table 23, 35° C. for 24 hr): 0.0025 µg/mL
A. fumigatus (MIC) ([2]; Table 23, 35° C. for 48 hr): 0.01 µg/mL
SMILES: N#C/C(=C1/SCC(c2ncc(NC(=O)OCCCCl)cc2Cl)S1)n1ccnc1 (centres unmarked) [compound 67]

C. albicans (MIC) ([1]; Table 23, 35° C. for 24 hr): 0.01 µg/mL
A. fumigatus (MIC) ([2]; Table 23, 35° C. for 48 hr): 0.01 µg/mL
SMILES: N#C/C(=C1/SCC(c2ncc(NC(=O)OCc3ccc(F)cn3)cc2Cl)S1)n1cncn1 (centres unmarked) [compound 73]

C. albicans (MIC) ([1]; Table 23, 35° C. for 24 hr): 0.01 µg/mL
A. fumigatus (MIC) ([2]; Table 23, 35° C. for 48 hr): 0.01 µg/mL
SMILES: N#C/C(=C1/SCC(c2ncc(NC(=O)OCc3ccc(F)nc3)cc2Cl)S1)n1cncn1 (centres unmarked) [compound 74]
